Where two headings read alike, the source gives them in different places.
Columns and labels:
[1] = tested on: M. avium hominissuis CIT10/08; assay: In vitro antimycobacterial MIC (IC90), alamarBlue 96-well assay in Middlebrook broth; assay type: cell-based, Mycobacterium avium hominissuis; conditions: Mycobacterium avium, 168 h, 7 days incubation, read-out: MIC, MAH CIT10/08
[2] = Isocratic RP-HPLC lipophilicity (k, log k, extrapolated log kw, slope S), MeOH/water mobile phases; assay type: physicochemical; conditions: for log kw (RP-HPLC): extrapolated to 100% water from log k vs ϕM (MeOH); for S, slope (RP-HPLC): slope of regression log k vs ϕM, alternative measure of lipophilicity
Description: Octadecyl-functionalized silica gel was used as a stationary phase in the RP-HPLC evaluation of 8a–h. A gradient of two solvents at different volume ratios modulated retention properties of a stationary phase. Liquid binary mixtures of methanol (MeOH) with water were employed as mobile phases in a present isocratic RP-HPLC method. The MeOH organic modifier was preferred because of making a reversed-phase chromatographic system closer to the octan-1-ol/water partitioning one in terms of sensitivity to H-bond donor properties of investigated compounds [39, 40]. The modifier was applied in different volume concentrations that varied from 60% to 85% (v/v).
The chromatographic HPLC-Diode Array Detection apparatus for the determination of capacity (retention) factor k (log k) values was the LC Agilent Infinity System (Agilent Technologies, Santa Clara, CA, USA) equipped with a Infinity 1260 gradient pump with a degasser, a 1260 HiPals automatic injector, a column thermostat 1290, a photo-diode array detector Infinity 1290 (all the equipments were obtained by Agilent Technologies) and personal computer with the Agilent ChemStation software (Agilent Technologies) for the registration of values and calibration procedures. The chromatographic column Eclipse plus RP C18, 150 × 4.6 mm i.d., a 5 μm particle size (Agilent Technologies), was used and thermostated at 35 °C.
The analyses were performed at pressure ranged from 7 MPa to 15 MPa. The detection wavelength was set to 260 nm, injection sample volume was 5 μL with a flow rate of 1.0 mL/min in all RP-HPLC analyses.
LC-MS Methanol (J. T. Baker Chemicals Co., Phillipsburg, NJ, USA) and HPLC-quality water (Sigma-Aldrich, Darmstadt, Germany) were used for a preparation of mobile phases. Water was firstly deionized and purified by the Millipore Simplicity 185 Ultrapure water purification system (Millipore, Billerica, MA, USA).
Methanol (MeOH)/water mobile phases with a various volume ratio of the organic modifier and water (60:40, 70:30, 80:20 and 85:15, respectively; v/v) were chosen. A concentration of all analyzed compounds 8a–h was c = 0.25 mg/mL. An queous solution of potassium nitrate (c = 0.1 M) was used for the determination of dead time t0 = 1.295 min. The capacity (retention) factor k values (Table 1) were calculated by Equation (6) as follows:k = (tr – t0)/t0(6) where the tr and t0 parameters were the retention times of a solute (tr) and unretained compound (potassium nitrate; t0), respectively. The observed retention (tr) and dead (t0) times were means of three independent determinations.
The log kw values, i.e., the logarithms of extrapolated capacity (retention) factors for 100% water in the isocratic RP-HPLC, were determined from intercepts of linear plots between the log k and ϕM (a volume fraction of an organic modifier in the isocratic elution RP-HPLC) according to Equation (7): log k = log kw – S × ϕM(7) where the S parameter represented the slope of a regression curve, which was related to the solvent strength of a pure organic solvent.

[3] = tested on: M. kansasii 6 509/96 clinical isolate; assay: In vitro antimycobacterial MIC, dilution-micromethod in Šula semisynthetic medium; assay type: cell-based; conditions: Mycobacterium kansasii, read-out: MIC, MK 6 509/96
[4] = assay type: physicochemical; parameters: key to RM (RP-TLC): RM = log(1/Rf - 1), from Rf in HCl/acetone mobile phase
Procedure: In the RP-TLC, silica gel plates impregnated by a hand with a variously concentrated silicone oil in heptane (a strong hydrophobic agent) were used as a non-polar stationary phase. Optimal differences in RM values within both homological groups 8a–d and 8e–h were observed if 1% silicone oil in heptane was chosen (Tables 1 and S1 in Supplementary Materials).
The RM values were calculated according to Equation (5) from the Rf parameters observed in a SM mobile phase: hydrochloric acid (c = 1.0 M)/acetone (4:1, v/v):RM = log (1/Rf – 1)(5)
For the experiments, aluminium sheets pre-coated with silica gel 60 F254 (0.25 mm thickness; Merck) were impregnated by a variously concentrated silicone oil in heptane, which ranged from 1% to 5%. The plates were separately spotted with 2 µL of methanolic solutions of each compound (c = 1 mg/mL), starting points were 1 cm from a bottom edge of these plates. The chromatographic plates were developed in glass developing chambers saturated for 30 min by the SM mobile phase. Development was carried out upon 15 cm from a starting line by an ascending technique. After being developed, the plates were dried at room temperature. Detection of zones was performed under iodine vapours/UV light at λ = 254 nm. Each experiment was run in triplicate at 21 °C, the RM values of analytes were calculated separately for each run.
Optimal differences in RM values within both homological groups 8a–d and 8e–h were observed if 1% silicone oil in heptane was chosen. The Rfs were found in a range from 0.19 (8h) to 0.78 (8a; Table 1). All the calculated average RM values were summarized in Table S1 (Supplementary Materials).

[5] = tested on: M. kansasii CIT11/06; assay: In vitro antimycobacterial MIC (IC90), alamarBlue 96-well assay in Middlebrook broth; assay type: cell-based, Mycobacterium kansasii; conditions: Mycobacterium kansasii, CIT11/06, 168 h, 7 days incubation, read-out: MIC, MK CIT11/06
[6] = tested on: M. tuberculosis CNCTC My 331/88 (identical with H37Rv and ATCC 2794); assay: In vitro antimycobacterial MIC, dilution-micromethod in Šula semisynthetic medium; assay type: cell-based; conditions: Mycobacterium tuberculosis
[7] = tested on: M. kansasii CNCTC My 235/80 (identical with ATCC 12478); assay: as above; assay type: cell-based, Mycobacterium kansasii; conditions: Mycobacterium kansasii, read-out: MIC, MK My 235/80
[8] = tested on: M. avium CNCTC My 330/80 (identical with ATCC 25291); assay: as above; assay type: cell-based; conditions: Mycobacterium avium, read-out: MIC, MA My 330/88
[9] = mobile phase MeOH/water 60:40 (v/v)
[10] = mobile phase MeOH/water 70:30 (v/v)
[11] = mobile phase MeOH/water 80:20 (v/v)
[12] = mobile phase MeOH/water 85:15 (v/v)
[13] = silica gel plates impregnated with 3% silicone oil in heptane
[14] = silica gel plates impregnated with 5% silicone oil in heptane
[15] = 336 h, 14 d cultivation, read-out: MIC, MT My 331/88
[16] = 504 h, 21 d cultivation, read-out: MIC, MT My 331/88
[17] = ATCC12478, 168 h, 7 d cultivation
[18] = ATCC12478, 336 h, 14 d cultivation
[19] = ATCC12478, 504 h, 21 d cultivation
[20] = ATCC25291, 336 h, 14 d cultivation
[21] = ATCC25291, 504 h, 21 d cultivation

Row | Compound | MIC [1] [µM] | capacity factor k (RP-HPLC) ([2]; MeOH/water 60:40 (v/v)) | capacity factor k (RP-HPLC) ([2]; MeOH/water 70:30 (v/v)) | capacity factor k (RP-HPLC) ([2]; MeOH/water 80:20 (v/v)) | capacity factor k (RP-HPLC) ([2]; MeOH/water 85:15 (v/v)) | log kw (RP-HPLC) [2] | log k (RP-HPLC) [2, 9] | log k (RP-HPLC) [2, 10] | log k (RP-HPLC) [2, 11] | log k (RP-HPLC) [2, 12] | S, slope (RP-HPLC) [2] | MIC ([3]; 336 h, 14 d cultivation) [µM] | MIC ([3]; 504 h, 21 d cultivation) [µM] | RM (RP-TLC) [4, 13] | RM (RP-TLC) [4, 14] | MIC [5] [µM] | MIC [6, 15] [µM] | MIC [6, 16] [µM] | MIC [7, 17] [µM] | MIC [7, 18] [µM] | also measured
1 | COC(=O)Nc1ccc(C(O)CN2CCN(c3ccccc3F)CC2)cc1.Cl (centres unmarked) [8e, 1-(2-Hydroxy-2-{4-[(methoxycarbonyl)amino]phenyl}ethyl)-4-(2-fluorophenyl)piperazin-1-ium chloride] | > 610 | 3.098 | 1.456 | 0.822 | 0.637 | 2.113 | 0.491 | 0.163 | −0.085 | −0.196 | 2.7386 | 500 | 500 | 0.19 | 0.25 | > 610 | 125 | 125 | 125 | 500 | MIC ([3]; 168 h, 7 d cultivation): 125 µM; MIC ([6]; 336 h, 14-d/21-d cultivation, read-out: MIC against M. tuberculosis CNCTC My 331/88): 125 µM; MIC [7, 19]: 500 µM; MIC [8, 20]: 250 µM; MIC [8, 21]: 500 µM
2 | CCOC(=O)Nc1cccc(C(O)CN2CCN(c3ccccc3F)CC2)c1.Cl (centres unmarked) [8b, 1-(2-{3-[(Ethoxycarbonyl)amino]phenyl}-2-hydroxyethyl)-4-(2-fluorophenyl)piperazin-1-ium chloride] | > 590 | 4.951 | 2.778 | 1.245 | 0.879 | 2.546 | 0.695 | 0.444 | 0.095 | −0.056 | 3.0529 | 250 | 250 | -0.03 | 0.11 | 295 | 125 | 125 | 62.5 | 250 | MIC ([3]; 168 h, 7 d cultivation): 62.5 µM; MIC [7, 19]: 250 µM; MIC [8, 20]: 250 µM; MIC [8, 21]: 250 µM
3 | CCOC(=O)Nc1ccc(C(O)CN2CCN(c3ccccc3F)CC2)cc1.Cl (centres unmarked) [8f, 1-(2-{4-[(Ethoxycarbonyl)amino]phenyl}-2-hydroxyethyl)-4-(2-fluorophenyl)piperazin-1-ium chloride] | > 590 | 4.524 | 2.053 | 1.023 | 0.757 | 2.512 | 0.656 | 0.312 | 0.010 | −0.121 | 3.1156 | > 125 | > 125 | 0.31 | 0.41 | 295 | 32 | 62.5 | 125 | > 250 | MIC ([3]; 168 h): 62.5 µM; RM, lipophilicity index (RP-TLC) [4]: 0.19; MIC [7, 19]: > 250 µM; MIC [8, 20]: > 250 µM; MIC [8, 21]: > 250 µM

From article PMC6149664, “Synthesis and In Vitro Antimycobacterial Activity of Novel N-Arylpiperazines Containing an Ethane-1,2-diyl Connecting Chain” (Molecules : A Journal of Synthetic Chemistry and Natural …, 2017)
